Measured values taken from patent publication US20100087413A1, “Prevention and treatment of inflammation-induced and/or immune-mediated bone loss” (priority 2003, published 2010).

Key:
[1] = tested on: Adjuvant-Induced Arthritis (AIA); assay: Adjuvant-induced arthritis (AIA), histology of hind joint sections from arthritic rats; type: in vivo; conditions: rat AIA, injected i.d. early (day0, day2, day4) or late (day9, day11, day13)
Source text: An intradermal injection, at the base of the tail, with heat killed Mycobaterium tuberculosum in incomplete Feund's Adjuvans results in destructive arthritis within 14 days in susceptible DA or LEW inbred rat strains. AIA can also be induced with cell walls from other bacterial types in IFA, although the arthritogenicity varies. Increased synthesis of tumor necrosis factor a (TNF-a), interleukin 1 (IL-1) and IL-6 is detected as early as day four after adjuvant injection. The disease progresses rapidly over several weeks in what appears clinically to be a monophasic process.
BX-1 early: BX-1 injected i.d. at the time of disease induction (day0) and day2, day4 BX-1 late: BX-1 injected i.d. at first signs of arthritis, day9, day11, day13.
Samples are from both left and right hind limb of three rats per group of a representative experiment
Rat ankle slides were histologically evaluated according to five criteria (blind evaluation by DL Boyle et al., University of California in San Diego, (J. Immunol., January 2002; 168: 51-56.): • 1. Extra-articular inflammation • 2. Bone marrow inflammation (BM) • 3. Synovial inflammation • 4. Cartilage/bone erosion • 5. Proteoglycan damage

human 11β-HSD1 = target: T1, human 11β-HSD1 (Homo sapiens, UniProt P28845); assay: 11β-HSD1 reductase activity (conversion of radiolabelled cortisone to cortisol) in lysates of stably transfected HEK-293 cells; type: biochemical; conditions: 10 μM CBX, 100 nM cortisone substrate
T1 construct: expressed in transfected cells; host or cells: HEK-293 cells, stably transfected; cell lysate
T1 sequence (P28845 whole entry): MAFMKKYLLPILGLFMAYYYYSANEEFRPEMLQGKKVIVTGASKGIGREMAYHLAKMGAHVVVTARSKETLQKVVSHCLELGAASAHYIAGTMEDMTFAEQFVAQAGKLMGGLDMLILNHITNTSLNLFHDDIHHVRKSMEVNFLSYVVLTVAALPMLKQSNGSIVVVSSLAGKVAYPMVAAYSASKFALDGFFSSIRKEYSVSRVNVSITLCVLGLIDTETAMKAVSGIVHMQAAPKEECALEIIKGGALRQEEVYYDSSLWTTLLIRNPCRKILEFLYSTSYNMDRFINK

Compound | influence on the pathology of arthritis (T-cell and dendritic cell activation, systemic inflammation, bone marrow infiltration) [1] | 11β-HSD1 % of control (human 11β-HSD1)
CC1(C)[C@@H](O)CC[C@]2(C)[C@H]3C(=O)C=C4[C@@H]5C[C@@](C)(C(=O)O)CC[C@]5(C)CC[C@@]4(C)[C@]3(C)CC[C@@H]12 [BX-1, 18-β-glycyrrhetinic acid] | positively influence all arms of the pathology of arthritis | 
CC1(C)[C@@H](OC(=O)CCC(=O)O)CC[C@]2(C)[C@H]3C(=O)C=C4[C@@H]5C[C@@](C)(C(=O)O)CC[C@]5(C)CC[C@@]4(C)[C@]3(C)CC[C@@H]12 [CBX, carbenoxolone] |  | 4.43 % of control
